From patent US20080103191A1, “ENTACAPONE-DERIVATIVES” (priority 2006, published 2008)
Converted amounts (≈) assume the structure as drawn. Read-outs that look alike come from different tables or passages of the source.

Tests used:
[1] = Permeability in Caco-2 cells, apical to basolateral; format: in vitro ADME; set-up: dose or concentration left out as unconfirmed; conditions: human; 21d Caco-2 monolayer, apical pH 6.5 to basolateral pH 7.4, 60 minutes
Text: The human adenocarcinoma cell line Caco-2 is used as an in vitro system to predict oral absorption. These cells serve as a model of small bowel tissue and permeation through these cells is a predictor for gastro-intestinal absorption. Further to being a model for oral absorption, permeability in Caco-2 cells may be predictive for the blood brain barrier permeability (P. Garberg et al.; Toxicology in vitro 19 (2005); 299-334). […] The permeability in Caco-2 cells has been tested by the following method:
The permeability of selected compounds of formula I across Caco-2 (21d Caco-2-culture) monolayer in the apical to basolateral direction is investigated. Control substances were ^3H-propranolol and ^3H-mannitol.
The nominal concentration of the test items is […]. The pH value is set to 6.5 for the apical transport medium and to 7.4 for the basolateral medium. Samples are obtained following 60 minutes (120 minutes for control samples) incubation from the basolateral receiver chamber. At sampling time approximately 600 μL of each well are transferred into an eppendorf vial and stored between −12° and −30° C. until HPLC or LC-MS/MS analysis. The control substances are quantified by liquid scintillation.

[2] = Chemical hydrolysis stability at pH 1 and pH 7.4 (HPLC); format: physicochemical; conditions: 37° C., over 12 h
Protocol: The stability of compounds of the present invention is tested at pH 1 and at pH 7.4. The testing is carried out by the following HPLC method:
Chemical hydrolysis rates t1/2 [h] of selected compounds of formula I are determined in 0.1 N HCl (pH 1) and PBS buffer (pH 7.4) solution. Solutions are prepared by dissolving an appropriate amount of compound in 0.1 N HCl and PBS buffer solution. Samples were withdrawn at designated time intervals and analysed for remaining prodrug by HPLC at 37° C. over 12 h.
Reversed phase gradient HPLC method, column YMC Pro C8, 50 mm×4.0 mm, 3 μm, Eluent A: Water:trifluoroacetic acid (100:0.5 (v/v)), Eluent B: Acetonitrile:trifluoroacetic:acid (100:0.5 (v/v)). Column temperature 30° C., Flow rate 3.0 mL/min, Detection wavelength: 220 nm
For evaluation, the peak area of the respective compound from the first injection is defined as 100% relative concentration. The peak areas of all other subsequent injections are calculated in percentage relating to this standard. (relative concentration in %). The relative concentrations are plotted in a logarithmic scale (ln) against the injection times. Based on the assumption of a first order kinetic, the rate constant and half life times (t1/2 [h]) can be calculated.

[3] = Solubility in 0.1 N HCl, PBS buffer, FaSSIF and FeSSIF; format: physicochemical; conditions: thermodynamic from solid, ambient temperature
Protocol: For testing solubility, saturated solutions of selected compounds of formula I are prepared in four different systems and compared to the solubility of entacapone. The solubility is tested in 0.1 N HCl (pH 1), PBS buffer (pH 7.4) and in two simulated gastric fluids, FaSSIF at pH 6.5 (for fasting state) and FeSSIF at pH 5.0 (for fed state) at ambient temperature. The content of the FaSSIF simulated gastric fluid is as follows:
The solubility testing is carried out by the following method: An excess amount of each compound is added to a 0.1 N HCl, PBS buffer, FeSSIF and FaSSIF. The suspensions are shaken for 10 min. After centrifugation the concentration is determined by HPLC. Reversed phase gradient HPLC method, column YMC Pro C8, 50 mm×4.0 mm, 3 μm, Eluent A: Water:trifluoroacetic acid (100:0.5 (v/v)), Eluent B: Acetonitrile:trifluoroacetic:acid (100:0.5 (v/v)). Column temperature 30° C., Flow rate 3.0 mL/min, Detection wavelength: 220 nm

[4] = Log D (pH 7.4) by isocratic HPLC; format: physicochemical; conditions: YMC Pro C18 column, phosphate buffer pH 7.4/acetonitrile 45/55
Protocol: LogD is an indicator for absorption and lipophilicity for ionized compounds under defined pH conditions and is measured by applying an isocratic HPLC Method at pH 7.4.
The log D has been tested at pH 7.4. The testing has been carried out by the following method: Isocratic HPLC method: Column YMC Pro C18, 150 mm×4.0 mm, 3 μm, Eluent Phosphate buffer pH 7.4/acetonitrile (45/55, (v/v)), Runtime 15-60 min, Flow rate 1.2 ml/min, Detection wavelength: 220 nm

Plasma stability ex vivo = format: in vitro ADME; conditions: human plasma, 37° C., read-out: t1/2 plasma
Protocol: Plasma stability is determined in human and rat plasma ex vivo. For the determination of the plasma stability of the compounds of formula I, the test compounds were incubated with human plasma (c=5 μg/mL) at 37° C. for certain time intervals up to 60, resp. 120 min (depending on the compound). Afterwards the incubations were stopped by equivalent addition of acetonitrile for protein precipitation, and the samples were mixed and centrifuged. The supernatants were adequately diluted and analyzed by HPLC with UV detection at 305 nm.
The degradation of the compounds of formula I as well as the formation of the active drug entacapone were monitored, and the half-life times of the compounds of formula I were calculated from the obtained peak areas.

[5] = pH 1, 0.1 N HCl, read-out: t1/2 at pH 1 (converted)
[6] = pH 7.4, PBS buffer, read-out: t1/2 at pH 7.4 (converted)
[7] = 0.1 N HCl, pH 1, simulated gastric fluid, shaken 10 min, read-out: Solubility 0.1N HCl Ph 1.0
[8] = FaSSIF, pH 6.5, fassif, fasting state fluid, read-out: Solubility FaSSIF Ph 6.5
[9] = FeSSIF, pH 5, fessif, fed state fluid, read-out: Solubility FeSSIF Ph 5.0
[10] = PBS buffer, pH 7.4, aqueous buffer, read-out: Solubility PBS Ph 7.4

| Papp A→B at 60 min [1] [×10⁻⁶ cm/s] | half-life [2, 5] [h] | half-life [2, 6] [h] | solubility at 10 min [3, 7] [µg/mL] | solubility at 10 min [3, 8] [µg/mL] | solubility at 10 min [3, 9] [µg/mL] | solubility at 10 min [3, 10] [µg/mL] | chromatographic logD [4] | half-life at 5 μg/mL (Plasma stability ex vivo) [min] | SMILES |
| --- | --- | --- | --- | --- | --- | --- | --- | --- | --- |
| < 5.1 | – | – | – | – | – | – | – | – | CCCCCOC(=O)Oc1cc(/C=C(\C#N)C(=O)N(CC)CC)cc([N+](=O)[O-])c1O [Compound 6, Carbonic acid 5-((E)-2-cyano-2-diethylcarbamoyl-vinyl)-2-hydroxy-3-nitro-phenyl ester pentyl ester] |
| < 5.1 | – | – | – | – | – | – | – | – | CCN(CC)C(=O)COC(=O)Oc1cc(/C=C(\C#N)C(=O)N(CC)CC)cc([N+](=O)[O-])c1O [Compound 18, Carbonic acid 5-((E)-2-cyano-2-diethylcarbamoyl-vinyl)-2-hydroxy-3-nitro-phenyl ester diethylcarbamoylmethyl ester] |
| < 5.1 | – | – | – | – | – | – | – | – | CCOC(=O)C(C)(C)OC(=O)Oc1cc(/C=C(\C#N)C(=O)N(CC)CC)cc([N+](=O)[O-])c1O [Compound 26, 2-[5-((E)-2-Cyano-2-diethylcarbamoyl-vinyl)-2-hydroxy-3-nitro-phenoxycarbonyloxy]-2-methyl-propionic acid ethyl ester] |
| 14.6 | – | – | – | – | – | – | – | – | CCOC(=O)CC(C)OC(=O)Oc1cc(/C=C(\C#N)C(=O)N(CC)CC)cc([N+](=O)[O-])c1O (centres unmarked) [Compound 34, 3-[5-((E)-2-Cyano-2-diethylcarbamoyl-vinyl)-2-hydroxy-3-nitro-phenoxycarbonyloxy]-butyric acid ethyl ester] |
| – | 4.1 | < 1 | > 1000 | > 1000 | > 1000 | > 1000 | 1 | – | CCN(CC)CCOC(=O)Oc1cc(/C=C(\C#N)C(=O)N(CC)CC)cc([N+](=O)[O-])c1O [Compound 55, Carbonic acid 5-((E)-2-cyano-2-diethylcarbamoyl-vinyl)-2-hydroxy-3-nitro-phenyl ester 2-diethylamino-ethyl ester] |
| 8.5 | 16.5 | 4.1 | – | – | – | – | 1 | 1 | C=CCOC(=O)Oc1cc(/C=C(\C#N)C(=O)N(CC)CC)cc([N+](=O)[O-])c1O [Compound 65, Carbonic acid allyl ester 5-((E)-2-cyano-2-diethylcarbamoyl-vinyl)-2-hydroxy-3-nitro-phenyl ester] |
| 4.9 | 12.8 | 3 | 10 (≈ 24.9 µM) | 910 (≈ 2270 µM) | 430 (≈ 1070 µM) | 850 (≈ 2120 µM) | 1.1 | – | C#CCCOC(=O)Oc1cc(/C=C(\C#N)C(=O)N(CC)CC)cc([N+](=O)[O-])c1O [Compound 83, Carbonic acid but-3-ynyl ester 5-((E)-2-cyano-2-diethylcarbamoyl-vinyl)-2-hydroxy-3-nitro-phenyl ester] |
| – | 11 | 12.2 | 30 (≈ 73.6 µM) | 630 (≈ 1550 µM) | 250 (≈ 614 µM) | 830 (≈ 2040 µM) | 1.7 | – | CCN(CC)C(=O)/C(C#N)=C/c1cc(OC(=O)OCC(=O)O)c(O)c([N+](=O)[O-])c1 [Compound 146, [5-((E)-2-Cyano-2-diethylcarbamoyl-vinyl)-2-hydroxy-3-nitro-phenoxycarbonyloxy]-acetic acid] |

The next lines start with the molecule.

| SMILES | Papp A→B at 60 min [1] [×10⁻⁶ cm/s] | half-life [2, 5] [h] | half-life [2, 6] [h] | solubility at 10 min [3, 7] [µg/mL] | solubility at 10 min [3, 8] [µg/mL] | solubility at 10 min [3, 9] [µg/mL] | solubility at 10 min [3, 10] [µg/mL] | chromatographic logD [4] | half-life at 5 μg/mL (Plasma stability ex vivo) [min] |
| --- | --- | --- | --- | --- | --- | --- | --- | --- | --- |
| CCN(CC)C(=O)/C(C#N)=C/c1cc(OC(=O)OCc2ccccc2)c(O)c([N+](=O)[O-])c1 [Compound 11, Carbonic acid benzyl ester 5-((E)-2-cyano-2-diethylcarbamoyl-vinyl)-2-hydroxy-3-nitro-phenyl ester] | – | 3 | 4.1 | 150 (≈ 341 µM) | 80 (≈ 182 µM) | 20 (≈ 45.5 µM) | 280 (≈ 637 µM) | 1.6 | – |
| CCN(CC)C(=O)/C(C#N)=C/c1cc(OC(=O)OCC2COC(C)(C)O2)c(O)c([N+](=O)[O-])c1 (centres unmarked) [Compound 12, Carbonic acid 5-((E)-2-cyano-2-diethylcarbamoyl-vinyl)-2-hydroxy-3-nitro-phenyl ester 2,2-dimethyl-[1,3]dioxolan-4-ylmethyl ester] | 2.3 | < 1 | 2.8 | – | – | – | – | – | – |
| CCN(CC)C(=O)/C(C#N)=C/c1cc(OC(=O)OC(C)(C)C(=O)OC)c(O)c([N+](=O)[O-])c1 [Compound 20, 2-[5-((E)-2-Cyano-2-diethylcarbamoyl-vinyl)-2-hydroxy-3-nitro-phenoxycarbonyloxy]-2-methyl-propionic acid methyl ester] | 11.7 | – | – | – | – | – | – | – | – |
| CCN(CC)C(=O)/C(C#N)=C/c1cc(OC(=O)OCc2ccc([N+](=O)[O-])cc2)c(O)c([N+](=O)[O-])c1 [Compound 27, Carbonic acid 5-((E)-2-cyano-2-diethylcarbamoyl-vinyl)-2-hydroxy-3-nitro-phenyl ester 4-nitro-benzyl ester] | 18.1 | 3.4 | 1.6 | – | – | – | – | > 8 | > 8 |
| CCN(CC)C(=O)/C(C#N)=C/c1cc(OC(=O)OC2CC3CCC2(C)C3(C)C)c(O)c([N+](=O)[O-])c1 (centres unmarked) [Compound 67, Carbonic acid 5-((E)-2-cyano-2-diethylcarbamoyl-vinyl)-2-hydroxy-3-nitro-phenyl ester 1,7,7-trimethyl-bicyclo[2.2.1]hept-2-yl ester] | 14.8 | 12.8 | 14.4 | – | – | – | – | 2.8 | 2.8 |
| CCN(CC)C(=O)/C(C#N)=C/c1cc(OC(=O)OCc2ccc3c(c2)OCO3)c(O)c([N+](=O)[O-])c1 [Compound 131, Carbonic acid benzo[1,3]dioxol-5-ylmethyl ester 5-((E)-2-cyano-2-diethylcarbamoyl-vinyl)-2-hydroxy-3-nitro-phenyl ester] | – | 15.3 | 3.4 | 20 (≈ 41.4 µM) | 960 (≈ 1990 µM) | 710 (≈ 1470 µM) | 970 (≈ 2010 µM) | 0.9 | – |
| CCN(CC)C(=O)/C(C#N)=C/c1cc(OC(=O)OC(C)c2ccccc2)c(O)c([N+](=O)[O-])c1 (centres unmarked) [Compound 137, Carbonic acid 5-((E)-2-cyano-2-diethylcarbamoyl-vinyl)-2-hydroxy-3-nitro-phenyl ester 1-phenyl-ethyl ester] | – | 7.8 | 21.4 | – | 150 (≈ 331 µM) | 20 (≈ 44.1 µM) | 340 (≈ 750 µM) | 2.6 | – |
